According to patent US8969516B2, “Method of hydrolysis of peptide bond” (priority 2006, dated 2015):

Assay: MALDI-TOF screening of Ni^2+ dependent hydrolysis in a combinatorial peptide library
Format: physicochemical
Conditions: CH3CO-Gly-Ala-Ser-X-His-Z-Lys-Phe-Leu-NH2 library, Ni^2+ 2 mM, pH 8.2, 10 mM Tris, score=24/tm
In short: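 Peptide sublibraries CH3CO-Gly-Ala-Ser/Thr-X-His-Z-Lys-Phe-Leu-NH2 (1 mM total) incubated with 2 mM Ni^2+ in 10 mM Tris pH 8.2 at 37 °C and 45 °C. Hydrolysis products, plus loss of substrate signals, detected by MALDI-TOF at 2, 4, 6 and 8 h; residues X and Z scored and ranked.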

Substance	hydrolysis score from MALDI-TOF screening (37° C.)	hydrolysis score from MALDI-TOF screening (45° C.)
Ac-GASNHSKFL-NH2 [SNHS]	0 (a score of 0 if no trace of the product of hydrolysis was seen after 8 hours of incubation)	0 (a score of 0 if no trace of the product of hydrolysis was seen after 8 hours of incubation)
Ac-GASNHTKFL-NH2 [SNHT]	0 (a score of 0 if no trace of the product of hydrolysis was seen after 8 hours of incubation)	0 (a score of 0 if no trace of the product of hydrolysis was seen after 8 hours of incubation)
Ac-GASNHVKFL-NH2 [SNHV]	3 (a score of 3 for detection at 8 hours)	3 (a score of 3 for detection at 8 hours)
Ac-GASNHWKFL-NH2 [SNHW]	6 (a score of 6 for detection at 4 hours)	6 (a score of 6 for detection at 4 hours)
Ac-GASNHYKFL-NH2 [SNHY]	3 (a score of 3 for detection at 8 hours)	3 (a score of 3 for detection at 8 hours)
Ac-GASPHAKFL-NH2 [SPHA]	0 (a score of 0 if no trace of the product of hydrolysis was seen after 8 hours of incubation)	0 (a score of 0 if no trace of the product of hydrolysis was seen after 8 hours of incubation)
Ac-GASPHDKFL-NH2 [SPHD]	0 (a score of 0 if no trace of the product of hydrolysis was seen after 8 hours of incubation)	0 (a score of 0 if no trace of the product of hydrolysis was seen after 8 hours of incubation)
Ac-GASPHEKFL-NH2 [SPHE]	0 (a score of 0 if no trace of the product of hydrolysis was seen after 8 hours of incubation)	0 (a score of 0 if no trace of the product of hydrolysis was seen after 8 hours of incubation)
Ac-GASPHFKFL-NH2 [SPHF]	0 (a score of 0 if no trace of the product of hydrolysis was seen after 8 hours of incubation)	0 (a score of 0 if no trace of the product of hydrolysis was seen after 8 hours of incubation)
Ac-GASPHGKFL-NH2 [SPHG]	0 (a score of 0 if no trace of the product of hydrolysis was seen after 8 hours of incubation)	0 (a score of 0 if no trace of the product of hydrolysis was seen after 8 hours of incubation)
Ac-GASPHHKFL-NH2 [SPHH]	0 (a score of 0 if no trace of the product of hydrolysis was seen after 8 hours of incubation)	0 (a score of 0 if no trace of the product of hydrolysis was seen after 8 hours of incubation)
Ac-GASPHIKFL-NH2 [SPHI]	0 (a score of 0 if no trace of the product of hydrolysis was seen after 8 hours of incubation)	0 (a score of 0 if no trace of the product of hydrolysis was seen after 8 hours of incubation)
Ac-GASPHKKFL-NH2 [SPHK]	0 (a score of 0 if no trace of the product of hydrolysis was seen after 8 hours of incubation)	0 (a score of 0 if no trace of the product of hydrolysis was seen after 8 hours of incubation)
Ac-GASPHLKFL-NH2 [SPHL]	0 (a score of 0 if no trace of the product of hydrolysis was seen after 8 hours of incubation)	0 (a score of 0 if no trace of the product of hydrolysis was seen after 8 hours of incubation)
Ac-GASPHMKFL-NH2 [SPHM]	0 (a score of 0 if no trace of the product of hydrolysis was seen after 8 hours of incubation)	0 (a score of 0 if no trace of the product of hydrolysis was seen after 8 hours of incubation)
Ac-GASPHNKFL-NH2 [SPHN]	0 (a score of 0 if no trace of the product of hydrolysis was seen after 8 hours of incubation)	0 (a score of 0 if no trace of the product of hydrolysis was seen after 8 hours of incubation)
Ac-GASPHPKFL-NH2 [SPHP]	0 (a score of 0 if no trace of the product of hydrolysis was seen after 8 hours of incubation)	0 (a score of 0 if no trace of the product of hydrolysis was seen after 8 hours of incubation)
Ac-GASPHQKFL-NH2 [SPHQ]	0 (a score of 0 if no trace of the product of hydrolysis was seen after 8 hours of incubation)	0 (a score of 0 if no trace of the product of hydrolysis was seen after 8 hours of incubation)
Ac-GASPHRKFL-NH2 [SPHR]	0 (a score of 0 if no trace of the product of hydrolysis was seen after 8 hours of incubation)	0 (a score of 0 if no trace of the product of hydrolysis was seen after 8 hours of incubation)
Ac-GASPHSKFL-NH2 [SPHS]	0 (a score of 0 if no trace of the product of hydrolysis was seen after 8 hours of incubation)	0 (a score of 0 if no trace of the product of hydrolysis was seen after 8 hours of incubation)

Substance	hydrolysis score from MALDI-TOF screening (37° C.)	hydrolysis score from MALDI-TOF screening (45° C.)
Ac-GASPHTKFL-NH2 [SPHT]	0 (a score of 0 if no trace of the product of hydrolysis was seen after 8 hours of incubation)	0 (a score of 0 if no trace of the product of hydrolysis was seen after 8 hours of incubation)
Ac-GASPHVKFL-NH2 [SPHV]	0 (a score of 0 if no trace of the product of hydrolysis was seen after 8 hours of incubation)	0 (a score of 0 if no trace of the product of hydrolysis was seen after 8 hours of incubation)
Ac-GASPHWKFL-NH2 [SPHW]	0 (a score of 0 if no trace of the product of hydrolysis was seen after 8 hours of incubation)	0 (a score of 0 if no trace of the product of hydrolysis was seen after 8 hours of incubation)
Ac-GASPHYKFL-NH2 [SPHY]	0 (a score of 0 if no trace of the product of hydrolysis was seen after 8 hours of incubation)	0 (a score of 0 if no trace of the product of hydrolysis was seen after 8 hours of incubation)
Ac-GASQHAKFL-NH2 [SQHA]	0 (a score of 0 if no trace of the product of hydrolysis was seen after 8 hours of incubation)	3 (a score of 3 for detection at 8 hours)
Ac-GASQHDKFL-NH2 [SQHD]	0 (a score of 0 if no trace of the product of hydrolysis was seen after 8 hours of incubation)	0 (a score of 0 if no trace of the product of hydrolysis was seen after 8 hours of incubation)
Ac-GASQHEKFL-NH2 [SQHE]	0 (a score of 0 if no trace of the product of hydrolysis was seen after 8 hours of incubation)	0 (a score of 0 if no trace of the product of hydrolysis was seen after 8 hours of incubation)
Ac-GASQHFKFL-NH2 [SQHF]	3 (a score of 3 for detection at 8 hours)	4 (a score of 4 for detection at 6 hours)
Ac-GASQHGKFL-NH2 [SQHG]	0 (a score of 0 if no trace of the product of hydrolysis was seen after 8 hours of incubation)	0 (a score of 0 if no trace of the product of hydrolysis was seen after 8 hours of incubation)
Ac-GASQHHKFL-NH2 [SQHH]	0 (a score of 0 if no trace of the product of hydrolysis was seen after 8 hours of incubation)	0 (a score of 0 if no trace of the product of hydrolysis was seen after 8 hours of incubation)
Ac-GASQHIKFL-NH2 [SQHI]	6 (a score of 6 for detection at 4 hours)	6 (a score of 6 for detection at 4 hours)
Ac-GASQHKKFL-NH2 [SQHK]	4 (a score of 4 for detection at 6 hours)	6 (a score of 6 for detection at 4 hours)
Ac-GASQHLKFL-NH2 [SQHL]	6 (a score of 6 for detection at 4 hours)	6 (a score of 6 for detection at 4 hours)
Ac-GASQHMKFL-NH2 [SQHM]	0 (a score of 0 if no trace of the product of hydrolysis was seen after 8 hours of incubation)	3 (a score of 3 for detection at 8 hours)
Ac-GASQHNKFL-NH2 [SQHN]	0 (a score of 0 if no trace of the product of hydrolysis was seen after 8 hours of incubation)	0 (a score of 0 if no trace of the product of hydrolysis was seen after 8 hours of incubation)
Ac-GASQHPKFL-NH2 [SQHP]	0 (a score of 0 if no trace of the product of hydrolysis was seen after 8 hours of incubation)	0 (a score of 0 if no trace of the product of hydrolysis was seen after 8 hours of incubation)
Ac-GASQHQKFL-NH2 [SQHQ]	0 (a score of 0 if no trace of the product of hydrolysis was seen after 8 hours of incubation)	0 (a score of 0 if no trace of the product of hydrolysis was seen after 8 hours of incubation)
Ac-GASQHRKFL-NH2 [SQHR]	6 (a score of 6 for detection at 4 hours)	6 (a score of 6 for detection at 4 hours)
Ac-GASQHSKFL-NH2 [SQHS]	0 (a score of 0 if no trace of the product of hydrolysis was seen after 8 hours of incubation)	0 (a score of 0 if no trace of the product of hydrolysis was seen after 8 hours of incubation)
